# Assay results published in US9393271B2, “GHRH agonists for islet cell transplantation and function and the treatment of diabetes” (UNIVERSITY OF MIAMI, priority 2012, dated 2016).
# Non-standard residues stand in square brackets, D forms with d. Residues, ends and D or L forms follow the SMILES beside them. No end group written: not given here. ξ: configuration not given here. *: point of attachment. Phe(F5) = N[C@@H](Cc1c(F)c(F)c(F)c(F)c1F)C(=O)O; Desaminotyrosyl = O=C(CCc1ccc(O)cc1)*; NMeY = CN[C@@H](Cc1ccc(O)cc1)C(=O)O; Agmatine = N=C(N)NCCCCN*; Nle = CCCC[C@H](N)C(=O)O; Orn = NCCC[C@H](N)C(=O)O; Abu = CC[C@H](N)C(=O)O; Ava = NCCCCC(=O)O; GABA = NCCCC(=O)O; ξA = CC(N)C(=O)O
# How the values were obtained:
# GH level = assay: In vivo endocrine activity (GH release), subcutaneous administration; settings: rat, s.c. injection
# Experimental: Subcutaneous Administration. Adult male rats were used and anesthetized with pentobarbital (6 mg/100 g, b.w.), by i.p. injection. […] Blood samples were taken from the jugular vein 5, 15 and/or 30 minutes after the injection. The blood samples were centrifuged, plasma was removed and the GH level was measured by ELISA. The results are summarized in terms of potency in Table 9.
# [1] = target: T1, GHRH receptor (human pituitary membrane homogenates) (Homo sapiens, UniProt Q02643); assay: GHRH receptor binding, ligand competition with 125I-labeled JV-1-42 (Table 7); parameters: Normal human pituitaries were purchased from the National Hormone and Peptide Program; tissue National Hormone and Peptide Program (A. F. Parlow, Harbor-UCLA Medical Center, Torrance, Calif.); host or cells: normal human pituitary, membrane fraction / homogenate; settings: JI-38 = 1
# T1 sequence (Q02643 23-423): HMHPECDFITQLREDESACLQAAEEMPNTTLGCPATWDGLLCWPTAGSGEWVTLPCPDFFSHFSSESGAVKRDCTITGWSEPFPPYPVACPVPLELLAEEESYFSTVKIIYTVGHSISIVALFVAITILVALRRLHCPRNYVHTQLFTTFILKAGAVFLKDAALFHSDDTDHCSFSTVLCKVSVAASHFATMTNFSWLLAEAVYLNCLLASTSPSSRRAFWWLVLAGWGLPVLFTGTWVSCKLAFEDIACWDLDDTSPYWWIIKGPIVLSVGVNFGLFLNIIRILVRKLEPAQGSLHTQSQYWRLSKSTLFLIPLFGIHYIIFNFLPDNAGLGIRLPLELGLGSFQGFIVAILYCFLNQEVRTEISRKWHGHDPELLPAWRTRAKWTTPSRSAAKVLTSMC
Compound,GH releasing potency relative to JI-38 (=1) (GH level; 5 min after),GH releasing potency relative to JI-38 (=1) (GH level; 15 min after),GH releasing potency relative to JI-38 (=1) (GH level; 30 min after),Relative affinitiy (Binding potency) vs JI-38 [1]
"CCCC[C@H](NC(=O)[C@@H](NC(=O)[C@H](CC(=O)O)NC(=O)[C@H](CCC(N)=O)NC(=O)[C@H](CC(C)C)NC(=O)[C@H](CC(C)C)NC(=O)[C@H](CCCN)NC(=O)[C@H](CCCNC(=N)N)NC(=O)[C@H](C)NC(=O)[C@H](CO)NC(=O)[C@H](CC(C)C)NC(=O)[C@H](CCC(N)=O)NC(=O)[C@H](CC)NC(=O)[C@H](CC(C)C)NC(=O)[C@@H](NC(=O)[C@H](CCCN)NC(=O)[C@H](CCCNC(=N)N)NC(=O)[C@H](Cc1ccc(O)cc1)NC(=O)[C@H](CO)NC(=O)[C@H](CCC(N)=O)NC(=O)[C@@H](NC(=O)[C@H](Cc1ccccc1)NC(=O)[C@@H](NC(=O)[C@H](C)NC(=O)[C@H](CC(=O)O)NC(=O)[C@@H](C)NC(=O)[C@H](Cc1ccc(O)cc1)NC)[C@@H](C)CC)[C@@H](C)O)C(C)C)[C@@H](C)CC)C(=O)N[C@@H](CC(=O)O)C(=O)N[C@@H](CCCNC(=N)N)C(=O)NCCCCC(N)=O [Peptide P-22325, [N—Me-Tyr^1, Gln^8, Orn^12, Abu^15, Orn^21, Nle^27, Asp^28, Apa^30]hGHRH (1-30)NH2] (H-[NMeY][dA]DAIFTQSYR[Orn]VL[Abu]QLSAR[Orn]LLQDI[Nle]DR[Ava]-NH2)",0.33,0.68,1.03,1.14
"CCCC[C@H](NC(=O)[C@@H](NC(=O)[C@H](CC(=O)O)NC(=O)[C@H](CCC(N)=O)NC(=O)[C@H](CC(C)C)NC(=O)[C@H](CC(C)C)NC(=O)[C@H](CCCN)NC(=O)[C@H](CCCNC(=N)N)NC(=O)[C@H](C)NC(=O)[C@H](CO)NC(=O)[C@H](CC(C)C)NC(=O)[C@H](CCC(N)=O)NC(=O)[C@H](CC)NC(=O)[C@H](CC(C)C)NC(=O)[C@@H](NC(=O)[C@H](CCCN)NC(=O)[C@H](CCCNC(=N)N)NC(=O)[C@H](Cc1ccc(O)cc1)NC(=O)[C@H](CO)NC(=O)[C@@H](NC(=O)[C@@H](NC(=O)[C@H](Cc1ccccc1)NC(=O)[C@@H](NC(=O)[C@H](C)NC(=O)[C@H](CC(=O)O)NC(=O)[C@@H](C)NC(=O)[C@H](Cc1ccc(O)cc1)NC)[C@@H](C)CC)[C@@H](C)O)[C@@H](C)O)C(C)C)[C@@H](C)CC)C(=O)N[C@@H](CC(=O)O)C(=O)N[C@@H](CCCNC(=N)N)C(=O)NC [Peptide P-27410, [N—Me-Tyr^1, D-Ala^2, Thr^8, Orn^12, Abu^15, Orn^21, Nle^27, Asp^28]hGHRH(1-29)NH—CH3] (H-[NMeY][dA]DAIFTTSYR[Orn]VL[Abu]QLSAR[Orn]LLQDI[Nle]DR-NHMe)",–,–,–,5.24
"CCCC[C@H](NC(=O)[C@@H](NC(=O)[C@H](CC(=O)O)NC(=O)[C@H](CCC(N)=O)NC(=O)[C@H](CC(C)C)NC(=O)[C@H](CC(C)C)NC(=O)[C@H](CCCN)NC(=O)[C@H](Cc1c[nH]cn1)NC(=O)[C@H](C)NC(=O)[C@H](CO)NC(=O)[C@H](CC(C)C)NC(=O)[C@H](CCC(N)=O)NC(=O)[C@H](CC)NC(=O)[C@H](CC(C)C)NC(=O)[C@@H](NC(=O)[C@H](CCCN)NC(=O)[C@H](Cc1c[nH]cn1)NC(=O)[C@H](Cc1ccc(O)cc1)NC(=O)[C@H](CO)NC(=O)[C@H](CCC(N)=O)NC(=O)[C@@H](NC(=O)[C@H](Cc1ccccc1)NC(=O)[C@@H](NC(=O)[C@H](C)NC(=O)[C@H](CC(=O)O)NC(=O)C(C)NC(=O)CCc1ccc(O)cc1)[C@@H](C)CC)[C@@H](C)O)C(C)C)[C@@H](C)CC)C(=O)N[C@@H](CC(=O)O)C(=O)N[C@@H](CCCNC(=N)N)C(=O)NC (stereo partly drawn) [Peptide P-27413, [Dat^1, Gln^8, His^11, Orn^12, Abu^15, His^20, Orn^21, Nle^27, Asp^28]hGHRH(1-29)NH—CH3] (Desaminotyrosyl-[ξA]DAIFTQSYH[Orn]VL[Abu]QLSAH[Orn]LLQDI[Nle]DR-NHMe)",–,–,–,1.78
"CCCC[C@H](NC(=O)[C@@H](NC(=O)[C@H](CC(=O)O)NC(=O)[C@H](CCC(N)=O)NC(=O)[C@H](CC(C)C)NC(=O)[C@H](CC(C)C)NC(=O)[C@H](CCCN)NC(=O)[C@H](CCCNC(=N)N)NC(=O)[C@H](C)NC(=O)[C@H](CO)NC(=O)[C@H](CC(C)C)NC(=O)[C@H](CCC(N)=O)NC(=O)[C@H](CC)NC(=O)[C@H](CC(C)C)NC(=O)[C@@H](NC(=O)[C@H](CCCN)NC(=O)[C@H](CCCNC(=N)N)NC(=O)[C@H](Cc1ccc(O)cc1)NC(=O)[C@H](CO)NC(=O)[C@H](CC(N)=O)NC(=O)[C@@H](NC(=O)[C@H](Cc1c(F)c(F)c(F)c(F)c1F)NC(=O)[C@@H](NC(=O)[C@H](C)NC(=O)[C@H](CC(=O)O)NC(=O)[C@@H](C)NC(=O)[C@H](Cc1ccc(O)cc1)NC)[C@@H](C)CC)[C@@H](C)O)C(C)C)[C@@H](C)CC)C(=O)N[C@@H](CO)C(=O)N[C@@H](CCCNC(=N)N)C(=O)NCCCC(=O)NC [Peptide P-27414, [N—Me-Tyr^1, D-Ala^2, Fpa5^6, Orn^12, Abu^15, Orn^21, Nle^27, Gab^30]hGHRH(1-30)NH—CH3] (H-[NMeY][dA]DAI[Phe(F5)]TNSYR[Orn]VL[Abu]QLSAR[Orn]LLQDI[Nle]SR[GABA]-NHMe)",–,–,–,2.79
"CCCC[C@H](NC(=O)[C@@H](NC(=O)[C@H](CC(=O)O)NC(=O)[C@H](CCC(N)=O)NC(=O)[C@H](CC(C)C)NC(=O)[C@H](CC(C)C)NC(=O)[C@H](CCCN)NC(=O)[C@H](CCCNC(=N)N)NC(=O)[C@H](C)NC(=O)[C@H](CO)NC(=O)[C@H](CC(C)C)NC(=O)[C@H](CCC(N)=O)NC(=O)[C@H](CC)NC(=O)[C@H](CC(C)C)NC(=O)[C@@H](NC(=O)[C@H](CCCN)NC(=O)[C@H](CCCNC(=N)N)NC(=O)[C@H](Cc1ccc(O)cc1)NC(=O)[C@H](CO)NC(=O)[C@H](CC(N)=O)NC(=O)[C@@H](NC(=O)[C@H](Cc1ccccc1)NC(=O)[C@@H](NC(=O)[C@H](C)NC(=O)[C@H](CC(=O)O)NC(=O)[C@H](C)NC(=O)[C@H](Cc1ccc(O)cc1)NC)[C@@H](C)CC)[C@@H](C)O)C(C)C)[C@@H](C)CC)C(=O)N[C@@H](CO)C(=O)N[C@@H](CCCNC(=N)N)C(=O)NCCCC(=O)NC [Peptide P-27415, [N—Me-Tyr^1, Orn^12, Abu^15, Orn^21, Nle^27, Gab^30]hGHRH(1-30)NH—CH3] (H-[NMeY]ADAIFTNSYR[Orn]VL[Abu]QLSAR[Orn]LLQDI[Nle]SR[GABA]-NHMe)",–,–,–,1.44
"CCCC[C@H](NC(=O)[C@@H](NC(=O)[C@H](CC(=O)O)NC(=O)[C@H](CCC(N)=O)NC(=O)[C@H](CC(C)C)NC(=O)[C@H](CC(C)C)NC(=O)[C@H](CCCN)NC(=O)[C@H](CCCNC(=N)N)NC(=O)[C@H](C)NC(=O)[C@H](CO)NC(=O)[C@H](CC(C)C)NC(=O)[C@H](CCC(N)=O)NC(=O)[C@H](CC)NC(=O)[C@H](CC(C)C)NC(=O)[C@@H](NC(=O)[C@H](CCCN)NC(=O)[C@H](CCCNC(=N)N)NC(=O)[C@H](Cc1ccc(O)cc1)NC(=O)[C@H](CO)NC(=O)[C@H](CCC(N)=O)NC(=O)[C@@H](NC(=O)[C@H](Cc1ccccc1)NC(=O)[C@@H](NC(=O)[C@H](C)NC(=O)[C@H](CC(=O)O)NC(=O)[C@@H](C)NC(=O)[C@H](Cc1ccc(O)cc1)NC)[C@@H](C)CC)[C@@H](C)O)C(C)C)[C@@H](C)CC)C(=O)N[C@@H](CC(=O)O)C(=O)N[C@@H](CCCNC(=N)N)C(=O)NCC [Peptide P-28420, [N—Me-Tyr^1, D-Ala^2, Gln^8, Orn^12, Abu^15, Orn^21, Nle^27, Asp^28]hGHRH(1-29)NH—CH2—CH3] (H-[NMeY][dA]DAIFTQSYR[Orn]VL[Abu]QLSAR[Orn]LLQDI[Nle]DR-NHEt)",–,–,–,8.37
"CCCC[C@H](NC(=O)[C@@H](NC(=O)[C@H](CC(=O)O)NC(=O)[C@H](CCC(N)=O)NC(=O)[C@H](CC(C)C)NC(=O)[C@H](CC(C)C)NC(=O)[C@H](CCCN)NC(=O)[C@H](CCCNC(=N)N)NC(=O)[C@H](C)NC(=O)[C@H](CO)NC(=O)[C@H](CC(C)C)NC(=O)[C@H](CCC(N)=O)NC(=O)[C@H](CC)NC(=O)[C@H](CC(C)C)NC(=O)[C@@H](NC(=O)[C@H](CCCN)NC(=O)[C@H](CCCNC(=N)N)NC(=O)[C@H](Cc1ccc(O)cc1)NC(=O)[C@H](CO)NC(=O)[C@H](CC(N)=O)NC(=O)[C@@H](NC(=O)[C@H](Cc1ccccc1)NC(=O)[C@@H](NC(=O)[C@H](C)NC(=O)[C@H](CC(=O)O)NC(=O)[C@@H](C)NC(=O)[C@H](Cc1ccc(O)cc1)NC)[C@@H](C)CC)[C@@H](C)O)C(C)C)[C@@H](C)CC)C(=O)N[C@@H](CC(=O)O)C(=O)N[C@@H](CCCNC(=N)N)C(=O)NCC [Peptide P-28421, [N—Me-Tyr^1, D-Ala^2, Orn^12, Abu^15, Orn^21, Nle^27, Asp^28]hGHRH(1-29)NH—CH2—CH3] (H-[NMeY][dA]DAIFTNSYR[Orn]VL[Abu]QLSAR[Orn]LLQDI[Nle]DR-NHEt)",–,–,–,2.96
"[N—Me-Tyr^1, Gln^8, Orn^12, Abu^15, Orn^21, Nle^27, Agm^29]hGHRH(1-29) ([NMeY]ADAIFTQSYR[Orn]VL[Abu]QLSAR[Orn]LLQDI[Nle]S[Agmatine]) [Peptide P-20373]",–,0.23,0.88,–
